The text below walks through data of patent US11780826B2 (Amgen Inc., priority 2017, dated 2023).

This assay relates to Bovine cardiac myofibrils. Description: In vitro model of dose-dependent myofibril ATPase modulation (AC1.4, pyruvate kinase/lactate dehydrogenase-coupled ATPase assay at pCa25). The format is biochemical. As to conditions: concentration at which ATPase activity was 1.4-fold higher than the bottom of the dose curve, mean of a minimum of two independent tests. In outline:
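Bovine cardiac myofibrils, detergent-treated; 0.25-1.0 mg/ml. Buffer: K-PIPES 12 mM, MgCl2 2 mM, DTT 1 mM, BSA 0.1 mg/ml, pH 6.80, 22° C; Ca2+ set by EGTA/CaCl2. ATP 1 mM, NADH/PEP-coupled, A340. 4-parameter fit; n≥2.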

In the case of `O=C(NCc1ccc(C(F)(F)F)cc1)[C@H]1CCCN1C(=O)[C@H]1CCCN(S(=O)(=O)N2CC(C(F)(F)F)C2)C1` [Example 380, 1-(((3S)-1-((3-(trifluoromethyl)-1-azetidinyl)sulfonyl)-3-piperidinyl)carbonyl)-N-(4-(trifluoromethyl)benzyl)-D-prolinamide], the AC1.4 stood at 1.257 µM.

The compound `Cc1cc(F)ccc1CNC(=O)[C@H]1CCCN1C(=O)[C@H]1CCCN(S(=O)(=O)N2CC(C#N)C2)C1` [Example 381, 1-(((3S)-1-((3-cyano-1-azetidinyl)sulfonyl)-3-piperidinyl)carbonyl)-N-(4-fluoro-2-methylbenzyl)-D-prolinamide] had an AC1.4 of 1.268 µM.

On to `CCS(=O)(=O)c1cccc(C(=O)N2[C@@H](C(=O)N[C@@H](c3ccc(C(F)(F)F)cc3F)C3(O)CC3)C[C@H]3C[C@H]32)c1` [Example 382, (1R,3R,5R)-2-(3-(ethylsulfonyl)benzoyl)-N-((S)-(2-fluoro-4-(trifluoromethyl)phenyl)(1-hydroxycyclopropyl)methyl)-2-azabicyclo[3.1.0]hexane-3-carboxamide], for which the AC1.4 came out at 1.232 µM.

As for `CCNc1cnc(C)cc1C(=O)N1[C@@H](C(=O)N[C@@H](c2ccc(C(F)(F)F)cc2F)C2CC2)C[C@H]2C[C@H]21` [Example 383, (1R,3R,5R)-N-((R)-cyclopropyl(2-fluoro-4-(trifluoromethyl)phenyl)methyl)-2-((5-(ethylamino)-2-methyl-4-pyridinyl)carbonyl)-2-azabicyclo[3.1.0]hexane-3-carboxamide], the AC1.4 was 1.2725 µM.

For the compound `O=C(NCc1ccc(C(F)(F)F)cc1)[C@H]1CCCN1C(=O)[C@H]1CCCN(S(=O)(=O)N2CC[C@H](C(F)(F)F)C2)C1` [Example 384, N-(4-(trifluoromethyl)benzyl)-1-(((3S)-1-(((3S)-3-(trifluoromethyl)-1-pyrrolidinyl)sulfonyl)-3-piperidinyl)carbonyl)-D-prolinamide], the AC1.4 turned out to be 1.295 µM.

In turn, `N#CC1CN(S(=O)(=O)c2cccc(C(=O)N3CCC[C@@H]3C(=O)N[C@@H](CO)c3cccc(C(F)(F)F)c3)c2)C1` [Example 386, 1-(3-((3-cyano-1-azetidinyl)sulfonyl)benzoyl)-N-((1R)-2-hydroxy-1-(3-(trifluoromethyl)phenyl)ethyl)-D-prolinamide] returned an AC1.4 of 1.3335 µM.

`COc1cc(CNC(=O)[C@H]2CCCN2C(=O)[C@H]2CCCN(S(=O)(=O)N3CC(C#N)C3)C2)ccc1C` [Example 387, 1-(((3S)-1-((3-cyano-1-azetidinyl)sulfonyl)-3-piperidinyl)carbonyl)-N-(3-methoxy-4-methylbenzyl)-D-prolinamide] showed an AC1.4 of 1.34 µM.

`COC[C@H](NC(=O)[C@H]1CCCN1C(=O)[C@H]1CCCN(S(=O)(=O)N2CC(C#N)C2)C1)c1cccc(C(F)(F)F)c1` [Example 388, 1-(((3S)-1-((3-cyano-1-azetidinyl)sulfonyl)-3-piperidinyl)carbonyl)-N-((1R)-2-methoxy-1-(3-(trifluoromethyl)phenyl)ethyl)-D-prolinamide,1-(((3S)-1-((3-cyano-1-azetidinyl)sulfonyl)-3-piperidinyl)carbonyl)-N-((1S)-2-methoxy-1-(3-(trifluoromethyl)phenyl)ethyl)-D-prolinamide]: the AC1.4 was found to be 1.3405 µM.

In turn, `CCS(=O)(=O)c1cc(C(=O)N2[C@@H](C(=O)N[C@@H](c3cc(F)c(Cl)cc3F)C3CC3)C[C@H]3C[C@H]32)ccn1` [Example 389, (1R,3R,5R)-N-((R)-(4-chloro-2,5-difluorophenyl)(cyclopropyl)methyl)-2-((2-(ethylsulfonyl)-4-pyridinyl)carbonyl)-2-azabicyclo[3.1.0]hexane-3-carboxamide] came in with an AC1.4 of 1.2325 µM.

For the compound `N#CC1CN(S(=O)(=O)N2CCC[C@H](C(=O)N3CCC[C@@H]3C(=O)NCc3cc(Cl)cc(Cl)c3)C2)C1` [Example 390, 1-(((3S)-1-((3-cyano-1-azetidinyl)sulfonyl)-3-piperidinyl)carbonyl)-N-(3,5-dichlorobenzyl)-D-prolinamide], the AC1.4 came to 1.3495 µM.

In turn, `C[C@@H](NC(=O)[C@H]1CCCN1C(=O)[C@H]1CCCN(S(=O)(=O)N2CC(C#N)C2)C1)c1cc(F)cc(F)c1` [Example 391, 1-(((3S)-1-((3-cyano-1-azetidinyl)sulfonyl)-3-piperidinyl)carbonyl)-N-((1R)-1-(3,5-difluorophenyl)ethyl)-D-prolinamide] yielded an AC1.4 of 1.3505 µM.

For the compound `O=C(N[C@@H](c1ccc(C(F)(F)F)cc1F)C1COC1)[C@H]1C[C@H]2C[C@H]2N1C(=O)c1ccnc(C(F)(F)F)c1` [Example 392, (1R,3R,5R)-N-((R)-(2-fluoro-4-(trifluoromethyl)phenyl)(3-oxetanyl)methyl)-2-((2-(trifluoromethyl)-4-pyridinyl)carbonyl)-2-azabicyclo[3.1.0]hexane-3-carboxamide], the AC1.4 was found to be 1.268 µM.

`CS(=O)(=O)c1cc(C(=O)N2C[C@H]3C[C@H]3[C@@H]2C(=O)N[C@@H](c2cc(F)c(Cl)cc2F)C2CC2)ccn1` [Example 393, (1R,2R,5S)-N-((R)-(4-chloro-2,5-difluorophenyl)(cyclopropyl)methyl)-3-((2-(methylsulfonyl)-4-pyridinyl)carbonyl)-3-azabicyclo[3.1.0]hexane-2-carboxamide]: the AC1.4 worked out at 1.3425 µM.

The compound `N#CC1CN(S(=O)(=O)N2CCC[C@H](C(=O)N3CCC[C@@H]3C(=O)NCc3cc(F)ccc3F)C2)C1` [Example 394, 1-(((3S)-1-((3-cyano-1-azetidinyl)sulfonyl)-3-piperidinyl)carbonyl)-N-(2,5-difluorobenzyl)-D-prolinamide] came in with an AC1.4 of 1.3725 µM.

Regarding `CCS(=O)(=O)c1cccc(C(=O)N2[C@@H](C(=O)N[C@@H](c3cc(F)c(Cl)cc3F)[C@H](C)O)C[C@H]3C[C@H]32)c1` [Example 395, (1R,3R,5R)-N-((1S,2S)-1-(4-chloro-2,5-difluorophenyl)-2-hydroxypropyl)-2-(3-(ethylsulfonyl)benzoyl)-2-azabicyclo[3.1.0]hexane-3-carboxamide], the AC1.4 amounted to 1.361 µM.

`N#CC1CN(S(=O)(=O)c2cccc(C(=O)N3CCC[C@@H]3C(=O)NCc3ccccc3Cl)c2)C1` [Example 396, N-(2-chlorobenzyl)-1-((3-((3-cyano-1-azetidinyl)sulfonyl)phenyl)carbonyl)-D-prolinamide] showed an AC1.4 of 1.3975 µM.

With `O=C(N[C@@H](c1cc(F)c(Cl)cc1F)C1CC1)[C@H]1C[C@@H](O)CN1C(=O)c1ccnc(C(F)(F)F)c1` [Example 397, (4R)-N-((R)-(4-chloro-2,5-difluorophenyl)(cyclopropyl)methyl)-4-hydroxy-1-((2-(trifluoromethyl)-4-pyridinyl)carbonyl)-D-prolinamide], the AC1.4 was 1.361 µM.

In the case of `O=C(NCc1ccc(C(F)(F)F)cc1)[C@H]1CCCN1C(=O)[C@H]1CCCN(S(=O)(=O)N2CC(c3cccc(Cl)c3)C2)C1` [Example 398, 1-(((3S)-1-((3-(3-chlorophenyl)-1-azetidinyl)sulfonyl)-3-piperidinyl)carbonyl)-N-(4-(trifluoromethyl)benzyl)-D-prolinamide], the AC1.4 was 1.4045 µM.

`O=C(N[C@@H](c1cc(F)c(Cl)cc1F)C1COC1)[C@H]1C[C@@H](O)CN1C(=O)c1ccnc(C(F)(F)F)c1` [Example 399, (4R)-N-((R)-(4-chloro-2,5-difluorophenyl)(3-oxetanyl)methyl)-4-hydroxy-1-((2-(trifluoromethyl)-4-pyridinyl)carbonyl)-D-prolinamide] displayed an AC1.4 of 1.4045 µM.

Consider `N#CC1CN(S(=O)(=O)N2CCC[C@H](C(=O)N3CCC[C@@H]3C(=O)NCc3cnc(C(F)(F)F)nc3)C2)C1` [Example 400, 1-(((3S)-1-((3-cyano-1-azetidinyl)sulfonyl)-3-piperidinyl)carbonyl)-N-((2-(trifluoromethyl)-5-pyrimidinyl)methyl)-D-prolinamide], for which the AC1.4 came to 1.4048 µM.

In turn, `CS(=O)(=O)c1cccc(C(=O)N2CC=C[C@@H]2C(=O)N[C@@H](c2ccc(C(F)(F)F)cc2F)C2CC2)c1` [Example 401, (2R)-N-((R)-cyclopropyl(2-fluoro-4-(trifluoromethyl)phenyl)methyl)-1-(3-(methylsulfonyl)benzoyl)-2,5-dihydro-1H-pyrrole-2-carboxamide] displayed an AC1.4 of 1.378 µM.

Compound `CCS(=O)(=O)c1cccc(C(=O)N2[C@@H](C(=O)N[C@@H](c3ccc(Cl)cc3)C3COC3)C[C@H]3C[C@H]32)c1` [Example 403, (1R,3R,5R)-N-((R)-(4-chlorophenyl)(3-oxetanyl)methyl)-2-(3-(ethylsulfonyl)benzoyl)-2-azabicyclo[3.1.0]hexane-3-carboxamide] registered an AC1.4 of 1.4025 µM.

For `N#CC1CN(S(=O)(=O)N2CCC[C@H](C(=O)N3CCC[C@@H]3C(=O)N[C@H](CO)c3cccc(C(F)(F)F)c3)C2)C1` [Example 404, 1-(((3S)-1-((3-cyano-1-azetidinyl)sulfonyl)-3-piperidinyl)carbonyl)-N-((1S)-2-hydroxy-1-(3-(trifluoromethyl)phenyl)ethyl)-D-prolinamide], the AC1.4 amounted to 1.4525 µM.

In the case of `C[C@H](O)[C@@H](NC(=O)[C@H]1C[C@H]2C[C@H]2N1C(=O)c1cccc(S(C)(=O)=O)c1)c1cc(F)c(Cl)cc1F` [Example 405, (1R,3R,5R)-N-((1S,2S)-1-(4-chloro-2,5-difluorophenyl)-2-hydroxypropyl)-2-(3-(methylsulfonyl)benzoyl)-2-azabicyclo[3.1.0]hexane-3-carboxamide], the AC1.4 came out at 1.4065 µM.

As to `N#CC1CN(S(=O)(=O)N2CCC[C@H](C(=O)N3CCC[C@@H]3C(=O)NCc3cccc(Cl)c3F)C2)C1` [Example 406, N-(3-chloro-2-fluorobenzyl)-1-(((3S)-1-((3-cyano-1-azetidinyl)sulfonyl)-3-piperidinyl)carbonyl)-D-prolinamide], the AC1.4 was 1.4675 µM.
